Measured values published in US20200129582A1, “NOVEL PEPTIDES AND PEPTIDOMIMETICS” (UNIVERSITY OF AUCKLAND, priority 2016, published 2020).
Read-outs that look alike come from different tables or passages of the source.

Legend:
[1] = target: T1, Connexin43 protein (hemichannels of hCMVEC cells) (Homo sapiens, UniProt P17302); type: cell-based; details: agent alone, 100 μM, FIG. 6, injury control 100±3.5%
T1 construct: In the ischemia injury model, hCMVEC cells were incubated for 2 hours; endogenous in cells; host or cells: hCMVEC (human cerebral microvascular endothelial cells)
T1 sequence (P17302 2-382): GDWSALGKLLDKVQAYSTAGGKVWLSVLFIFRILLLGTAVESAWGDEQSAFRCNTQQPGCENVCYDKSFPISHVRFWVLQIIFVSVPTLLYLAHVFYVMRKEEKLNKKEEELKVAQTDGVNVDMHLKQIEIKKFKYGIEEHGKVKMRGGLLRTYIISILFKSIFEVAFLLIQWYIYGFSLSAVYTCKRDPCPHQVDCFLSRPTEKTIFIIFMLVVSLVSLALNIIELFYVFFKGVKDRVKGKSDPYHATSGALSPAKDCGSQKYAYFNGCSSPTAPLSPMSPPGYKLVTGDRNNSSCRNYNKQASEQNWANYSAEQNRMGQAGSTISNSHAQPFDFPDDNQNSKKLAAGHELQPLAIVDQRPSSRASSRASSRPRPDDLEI

[2] = target: T2, coupled gap junction channels in hCMVEC cells (Homo sapiens, UniProt P17302); type: cell-based
T2 construct: A confluent monolayer of hCMVECs was pre-incubated in Peptide5; endogenous in cells; host or cells: hCMVEC
T2 sequence (P17302 2-382 limits assumed): as the sequence (P17302 2-382) above
Experimental: (§1) The hCMVEC cells were plated in 1 μg/cm^2 collagen I (Gibco) 12-well plate at a density of 0.4×10^6 cells per well, and cultured overnight. A confluent monolayer of hCMVECs was pre-incubated in Peptide5 (5-100 μM) dissolved in culture medium for 2 hours or 24 hours. CBX at a concentration of 100 μM was used as a positive control. Cells were washed three times with phosphate buffered saline (PBS) without Ca^2+ or Mg^2+. The cells were then incubated in 0.05% Lucifer Yellow (LY) (Sigma), a fluorescent dye that is transferred through coupled gap junction channels (el-Fouly et al., 1987, Experimental cell research 168:422-430), +/−Peptide5 dissolved in PBS, and scrape-wounded with a size 10 carbon steel surgical blade (Swann-Morton, England). Following 5-minute incubation at 37° C. in 95% O2 and 5% CO2 without light, the 0.05% LY solution was removed. Cells were rinsed four times with PBS with Ca^2+ or Mg^2+, and then fixed in 4% paraformaldehyde (PFA) in PBS at pH 7.4 for 10 minutes at room temperature. Cells were then washed 3 times in PBS to remove PFA before fluorescent imaging. Fluorescent images were visualised using a Nikon TE2000E inverted fluorescent microscope (10× magnification, 0.3 numerical aperture), and captured using a Digital Sight CCD camera and Eclipse Net software (Nikon). Three images within each well from three independent experiments were taken for analysis and the total number of cells showing dye uptake from those that had been loaded were counted manually by masked observers.
as §1, with “1987),” for “1987, Experimental cell research 168:422-430),”

[3] = tested on: hemichannels and gap junction channels; details: O'Carroll et al., 2008; cited from earlier work
[4] = target: T1, Connexin43 protein (hemichannels of hCMVEC cells); type: cell-based
Experimental: (§2) Peptide5 interacting site on the Connexin43 protein was determined using a competition assay. Extracellular loop sequences (Auspep, Australia) were dissolved in miliQ H2O were at a stock concentration of 1 mM […]. Extracellular loop sequences were mixed with the native Peptide5 at 1:1 ratio (100 μM), which was left for 1 hour at room temperature prior to the experiment to allow competitive binding to occur. Following 1-hour incubation, extracellular loop sequence and peptide5 mixture was dissolved in injury solution and exposed to hCMVEC cells for 2 hours using the ischaemia-reperfusion model described above. Extracellular medium was then collected for ATP measurement.
as §2, with “interaction sites” for “interacting site”

## CC1(C)[C@@H](OC(=O)CCC(=O)O)CC[C@]2(C)[C@H]3C(=O)C=C4[C@@H]5C[C@@](C)(C(=O)O)CC[C@]5(C)CC[C@@]4(C)[C@]3(C)CC[C@@H]12 [CBX, Carbenoxolone]
[1]
  ATP release, % of the injury control: 13.4±4.8%
[2]; hCMVEC, 100 μM, 2-hour exposure, FIG. 2A
  LY positive cells compared to the control: 16.3±1.1%
[2]; hCMVEC, 100 μM, 2-hour exposure, FIG. 5, untreated control 100±4.5%
  LY dye transfer, % of the untreated control: 15.3±1.8%
[2]; hCMVEC, 100 μM, FIG. 2
  LY dye transfer compared to native Peptide5 (in words): significantly more than the native Peptide5
  LY dye transfer compared to untreated control (in words): significantly reduced

## VDCFLSRPTEKT [Peptide5]
[3]
  high concentration that inhibits both hemichannel and gap junction channel function: 500 µM
  low concentrations that specifically inhibit hemichannels: 5 to 50 µM
[4]
  ATP release, % of the injury control: 54.1±4.4%
[2]
  LY dye transfer compared to untreated control (in words): significantly attenuated LY dye transfer
  LY dye transfer, % of the untreated control: 79.4±3.9%
  LY positive cells compared to the control: 56.2±2.6%
